# In US20240116892A1, “HETEROCYCLIC AMIDE AND UREA COMPOUNDS AS JAK2 INHIBITORS” (Ajax Therapeutics, Inc., priority 2022, published 2024):
# Molecular target: JAK2 (JH1 domain-catalytic, Y1007F, Y1008F) kinase (Homo sapiens (Human), UniProt O60674, Y1007F/Y1008F)
# Assay: JAK2 JH1 Domain Binding Assay
# Settings: qPCR readout
# In short: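 Competitive binding format: test compound, DNA-tagged JAK2 JH1 (Y1007F/Y1008F; HEK293-expressed NFkB fusion) and ligand-coated magnetic beads incubated 1 h at room temperature. Kinase retained on beads released with 0.5 μmol/L non-biotinylated ligand, then measured by qPCR.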
# Chain of JAK2 (JH1 domain-catalytic, Y1007F, Y1008F) kinase (O60674 849-1124 Y1007F/Y1008F): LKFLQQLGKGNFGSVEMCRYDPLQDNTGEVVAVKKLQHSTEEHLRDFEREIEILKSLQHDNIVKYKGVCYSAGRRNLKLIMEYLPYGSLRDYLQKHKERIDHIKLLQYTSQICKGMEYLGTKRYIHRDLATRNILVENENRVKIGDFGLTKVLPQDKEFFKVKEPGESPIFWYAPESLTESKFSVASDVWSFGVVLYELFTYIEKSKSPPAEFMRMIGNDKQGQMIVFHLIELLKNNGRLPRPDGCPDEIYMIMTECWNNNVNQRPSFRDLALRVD
row,Compound,Kd [nM]
1,"COCc1cc2nc(N3CCC(N(C)C(=O)Nc4cc(C(F)(F)F)cn(C)c4=O)CC3)cnc2[nH]1 [Example I-77, 1-(1-(6-(methoxymethyl)-5H-pyrrolo[2,3-b]pyrazin-2-yl)piperidin-4-yl)-1-methyl-3-(1-methyl-2-oxo-5-(trifluoromethyl)-1,2-dihydropyridin-3-yl)urea]",< 10
2,"Cn1cc(C(F)(F)F)cc(NC(=O)N2CC=CC23CCN(c2cnc4[nH]ccc4n2)CC3)c1=O [Example I-78, N-(1-methyl-2-oxo-5-(trifluoromethyl)-1,2-dihydropyridin-3-yl)-8-(5H-pyrrolo[2,3-b]pyrazin-2-yl)-1,8-diazaspiro[4.5]dec-3-ene-1-carboxamide]",10 to 50
3,"CN(C(=O)Nc1cc(C(F)(F)F)cn(C)c1=O)[C@H]1[C@@H]2CC[C@H]1CN(c1cnc3[nH]ccc3n1)C2 [Example I-79, 1-(3-(5H-pyrrolo[2,3-b]pyrazin-2-yl)-3-azabicyclo[3.2.1]octan-8-yl)-1-methyl-3-(1-methyl-2-oxo-5-(trifluoromethyl)-1,2-dihydropyridin-3-yl)urea]",10 to 50
4,"CN(C(=O)Nc1cc(C(F)(F)F)cn(C)c1=O)[C@H]1[C@@H]2CC[C@H]1CN(c1cnc3[nH]ncc3c1)C2 [Example I-80, 1-(3-(1H-pyrazolo[3,4-b]pyridin-5-yl)-3-azabicyclo[3.2.1]octan-8-yl)-1-methyl-3-(1-methyl-2-oxo-5-(trifluoromethyl)-1,2-dihydropyridin-3-yl)urea]",10 to 50
5,"Cn1cc(C(F)(F)F)cc(NC(=O)N2CC=CC23CCN(c2cnc4[nH]ncc4c2)CC3)c1=O [Example I-81, N-(1-methyl-2-oxo-5-(trifluoromethyl)-1,2-dihydropyridin-3-yl)-8-(1H-pyrazolo[3,4-b]pyridin-5-yl)-1,8-diazaspiro[4.5]dec-3-ene-1-carboxamide]",10 to 50
6,"CN(C(=O)Nc1cc(C(F)(F)F)cn(C)c1=O)[C@H]1CCN(c2cnc3[nH]ncc3n2)C[C@H]1F [Example I-83-a, 1-((3R,4S)-3-fluoro-1-(1H-pyrazolo[3,4-b]pyrazin-5-yl)piperidin-4-yl)-1-methyl-3-(1-methyl-2-oxo-5-(trifluoromethyl)-1,2-dihydropyridin-3-yl)urea]",< 10
7,"CN(C(=O)Nc1cc(C(F)(F)F)cn(C)c1=O)[C@@H]1CCN(c2cnc3[nH]ncc3n2)C[C@@H]1F [Example I-83-b, 1-((3S,4R)-3-fluoro-1-(1H-pyrazolo[3,4-b]pyrazin-5-yl)piperidin-4-yl)-1-methyl-3-(1-methyl-2-oxo-5-(trifluoromethyl)-1,2-dihydropyridin-3-yl)urea]",< 10
8,"COc1n[nH]c2ncc(N3CC[C@H](N(C)C(=O)Nc4cc(C(F)(F)F)cn(C)c4=O)[C@@H](F)C3)cc12 [Example I-84-a, 1-((3S,4S)-3-fluoro-1-(3-methoxy-1H-pyrazolo[3,4-b]pyridin-5-yl)piperidin-4-yl)-1-methyl-3-(1-methyl-2-oxo-5-(trifluoromethyl)-1,2-dihydropyridin-3-yl)urea]",< 10
9,"COc1n[nH]c2ncc(N3CC[C@@H](N(C)C(=O)Nc4cc(C(F)(F)F)cn(C)c4=O)[C@H](F)C3)cc12 [Example I-84-b, 1-((3R,4R)-3-fluoro-1-(3-methoxy-1H-pyrazolo[3,4-b]pyridin-5-yl)piperidin-4-yl)-1-methyl-3-(1-methyl-2-oxo-5-(trifluoromethyl)-1,2-dihydropyridin-3-yl)urea]",< 10
10,"Cn1cc(C(F)(F)F)cc(NC(=O)C2(C3CCN(c4cnc5[nH]ccc5n4)CC3)CC2)c1=O [Example I-85, 1-(1-(5H-pyrrolo[2,3-b]pyrazin-2-yl)piperidin-4-yl)-N-(1-methyl-2-oxo-5-(trifluoromethyl)-1,2-dihydropyridin-3-yl)cyclopropane-1-carboxamide]",< 10
11,"CN(C(=O)Nc1cc(C(F)(F)F)cn(C)c1=O)C1CCN(c2cnc3[nH]n(C)c(=O)c3c2)CC1 [Example I-86, 1-methyl-3-(1-methyl-2-oxo-5-(trifluoromethyl)-1,2-dihydropyridin-3-yl)-1-(1-(2-methyl-3-oxo-2,3-dihydro-1H-pyrazolo[3,4-b]pyridin-5-yl)piperidin-4-yl)urea]",< 10
